Columns and labels:
[1] = log P by HPLC on reversed-phase column (C18), EEC directive 79/831 Annex V.A8; type: physicochemical; settings: for log p: HPLC reversed-phase C18, 43° C., data refer to the E isomer
Method: The log P values reported in the tables and Preparation Examples above were determined in accordance with EEC directive 79/831 Annex V.A8 by HPLC (High Performance Liquid Chromatography) using a reversed-phase column (C18). Temperature 43° C. The calibration is effected with unbranched alkan-2-ones (having 3 to 16 carbon atoms), for which the log P values are known.

Boophilus microplus = Boophilus microplus - injection test (BOOPMI Inj); type: in vivo; settings: application rate 20 μg/animal, injection into engorged adult female cattle ticks
Method: Boophilus microplus—Injection Test (BOOPMI Inj)
(§1) Solvent: dimethyl sulfoxide
To produce a suitable preparation of active compound, 10 mg of active compound are mixed with 0.5 ml of solvent and the concentrate is diluted with solvent to the desired concentration.
1 μl of the active compound solution is injected into the abdomen of 5 engorged adult female cattle ticks (Boophilus microplus). The animals are transferred into dishes and kept in a climate-controlled room.
The activity is assessed after the desired time by laying of fertile eggs. Eggs which are not visibly fertile are stored in a climate-controlled cabinet until the larvae hatch after about 42 days. An efficacy of 100% means that none of the ticks has laid any fertile eggs; 0% means that all the eggs are fertile.

Lucilia cuprina = Lucilia cuprina test (LUCICU); type: in vivo; settings: application rate 100 ppm
Method: Lucilia cuprina-Test (LUCICU)
as §1
(§2) To produce a suitable preparation of active compound, 10 mg of active compound are mixed with 0.5 ml of dimethyl sulfoxide, and the concentrate is diluted with water to the desired concentration.
About 20 L1 larvae of the Australian sheep blowfly (Lucilia cuprina) are transferred into a test vessel containing minced horsemeat and the active compound preparation of the desired concentration.
After the desired time, the kill in % is determined. 100% means that all the larvae have been killed; 0% means that no larvae have been killed.

Musca domestica = Musca domestica test (MUSCDO); type: in vivo
Method: Musca domestica-Test (MUSCDO)
as §1, §2
Vessels containing a sponge treated with sugar solution and the active compound preparation of the desired concentration are populated with 10 adult houseflies (Musca domestica).
After the desired time, the kill in % is determined. 100% means that all of the flies have been killed; 0% means that none of the flies have been killed.

Myzus persicae = Myzus persicae - spray test (MYZUPE); type: in vivo; settings: application rate 100 g/ha, Chinese cabbage leaf disks
Summary of the method: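 Chinese cabbage leaf disks carrying all stages of green peach aphid were sprayed with compound in acetone/DMF with emulsifier, diluted in water. After the chosen period, efficacy was scored as % aphids killed.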

Spodoptera frugiperda = Spodoptera frugiperda - spray test (SPODFR); type: in vivo; settings: application rate 100 g/ha, maize leaf disks
Summary of the method: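 Maize leaf disks sprayed with compound in acetone/DMF with alkylaryl polyglycol ether emulsifier, diluted in water to test concentration, then infested with armyworm caterpillars once dry. Efficacy given as % caterpillars killed (100% all, 0% none) after the chosen period.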

Phaedon cochleariae = Phaedon cochleariae - spray test (PHAECO); type: in vivo; settings: application rate 100 g/ha, Chinese cabbage leaf disks
Summary of the method: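 Active compound in acetone/dimethylformamide with alkylaryl polyglycol ether emulsifier was diluted with emulsifier-containing water to the test concentration and sprayed. After the set period, efficacy was scored as % larvae killed (100% = all beetle larvae dead, 0% = none).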

Tetranychus urticae = Tetranychus urticae - spray test, OP-resistant (TETRUR); type: in vivo; settings: application rate 100 g/ha, bean leaf disks
Method: Tetranychus urticae—Spray Test, OP-Resistant (TETRUR)
Solvent: 78.0 parts by weight of acetone • • 1.5 parts by weight of dimethylformamide
Emulsifier: 0.5 parts by weight of alkylaryl polyglycol ether
To produce a suitable active compound preparation, 1 part by weight of active compound is mixed with the stated amounts of solvent and emulsifier, and the concentrate is diluted with emulsifier-containing water to the desired concentration.
Disks of bean leaves (Phaseolus vulgaris) infested with all stages of the greenhouse red spider mite (Tetranychus urticae) are sprayed with an active compound preparation of the desired concentration.
After the desired period of time, the efficacy in % is determined. 100% means that all the spider mites have been killed; 0% means that none of the spider mites have been killed.

Row | SMILES | log p ([1]; Table C) | efficacy (no fertile eggs laid) (Boophilus microplus) [%] | efficacy (kill of L1 larvae) (Lucilia cuprina) [%] | efficacy (kill of adult houseflies) (Musca domestica; application rate 20 ppm) [%] | efficacy (aphids killed) (Myzus persicae) [%] | efficacy (caterpillars killed) (Spodoptera frugiperda) [%] | efficacy (beetle larvae killed) (Phaedon cochleariae) [%] | log p ([1]; Table B) | efficacy (spider mites killed) (Tetranychus urticae) [%] | log p ([1]; Table A) | efficacy (kill of adult houseflies) (Musca domestica; application rate 100 ppm) [%] | chromatographic logP ([1]; log P) | chromatographic logP ([1]; log p)
1 | CON=Cc1cc(C)c(NC(=O)c2cc(OCC(F)F)nn2-c2ncccc2Cl)c(C(=O)NC(C)C)c1 [C-19] | 3.07 | 100 | 100 | 80 | 90 | 100 |  |  |  |  |  |  | 
2 | CON=Cc1cc(C)c(NC(=O)c2cc(C(F)F)nn2-c2ncccc2Cl)c(C(=O)NC(C)C)c1 [C-29] | 2.98 | 100 | 100 | 100 | 100 | 100 | 100 |  |  |  |  |  | 
3 | CON=Cc1cc(C)c(NC(=O)c2cc(C(F)(F)F)nn2-c2ncccc2Cl)c(C(=O)NC2COC2)c1 (mixture of isomers) [B-02] |  | 100 | 100 |  | 100 | 100 | 100 | 2.78 | 90 |  |  |  | 
4 | CON=Cc1cc(C)c(NC(=O)c2cc(C(F)(F)F)nn2-c2ncccc2Cl)c(C(=O)NNC(=O)Oc2ccccc2)c1 [A-19] |  | 95 | 100 |  |  | 100 | 100 |  | 90 | 3.02 |  |  | 
5 | CON=Cc1cc(C)c(NC(=O)c2cc(C(F)F)nn2-c2ncccc2Cl)c(C(=O)NNC(=O)OC)c1 (mixture of isomers) [A-39] |  | 100 | 100 |  | 90 | 100 | 100 |  |  | 2.26 | 80 |  | 
6 | CNC(=O)c1cc(C=NOC)cc(C)c1NC(=O)c1cc(C(F)F)nn1-c1ncccc1Cl [C-28] | 2.48 | 100 | 100 |  | 90 | 100 | 100 |  |  |  | 80 |  | 
7 | CON=Cc1cc(C)c(NC(=O)c2cc(Br)nn2-c2ncccc2Cl)c(C(=O)NNC(=O)OC)c1 (mixture of isomers) [A-42] |  | 100 | 100 |  | 100 | 100 | 100 |  |  | 2.38 | 80 |  | 
8 | CO/N=C/c1cc(C)c(NC(=O)c2cc(OCC(F)F)nn2-c2ncccc2Cl)c(C(=O)NN(C)C(=O)OC)c1 [A-01, Methyl 2-{2-({[1-(3-chloropyridin-2-yl)-3-(2,2-difluoroethoxy)-1H-pyrazol-5-yl]carbonyl}amino)-5-[(E)-(methoxyimino)methyl]-3-methylbenzoyl}-1-methylhydrazinecarboxylate] |  |  |  |  | 90 | 100 | 100 |  | 90 |  |  | 2.58 | 2.58
9 | C#CCOC(=O)NN(C)C(=O)c1cc(C=NOC)cc(C)c1NC(=O)c1cc(C(F)(F)F)nn1-c1ncccc1Cl [A-29] |  | 95 | 100 |  | 90 | 100 |  |  | 90 | 3.16 |  |  | 
10 | CON=Cc1cc(C)c(NC(=O)c2cc(Br)nn2-c2ncccc2Cl)c(C(=O)NC2(C)CSC2)c1 (mixture of isomers) [B-01] |  |  |  |  | 90 | 100 | 100 | 3.22 | 100 |  |  |  | 

— US9609868B2, “Alkoximino-substituted anthranilic acid diamides as pesticides” (BAYER CROPSCIENCE AKTIENGESELLSCHAFT, priority 2013, dated 2017)
